Assay results: patent US20230146455A1, “TREATMENT OF INFLAMMATORY DISEASES WITH PEPTIDES AND PHARMACEUTICAL COMPOSITIONS” (Yuyu Pharma, Inc., priority 2020, published 2023)
“And” between values parts separate entries of the source, which are not always exact repeats. Equal entries are not always repeated. Where a SMILES comes first, the peptide text is derived from it. [ ]: non-standard residue; d: D form. Hyp = O=C(O)[C@@H]1C[C@@H](O)CN1

How the values were obtained:
TIMP-1 = assay: Example 8 main study Luminex, LPS hPBMCs: TIMP-1; format: cell-based, human; settings: PBMC + LPS(5 ug/ml)
Method: (§1) Human PBMCs were pretreated with YY-101, YDE-011, YDE-043 or reference compound; Xiidra® at various concentration (ranging from […] to 500 nM) for 2 h before stimulation. An equal volume of 0.5% DMSO was used as a vehicle control. Then, the cells were treated with LPS at 5 ug/ml, which was selected based on the pilot study. The supernatants from treated cells were harvested at 24 h and placed in a 96 well for Luminex cytokine & chemokine profiling using a Luminex 200 multiplex assay (Luminex; R&D system, USA).
(§2) The main study arm with triplicate wells per group in a 24-well plate: • 1. Blank • 2. PBMC: 0.5% DMSO • 3. PBMC+LPS (5 ug/ml) • 4. PBMC+YY-101 500 nM • 5. PBMC+YY-101 50 nM • 6. PBMC+YY-101 5 nM • 7. PBMC+YY-101 0.5 nM • 8. PBMC+LPS (5 ug/ml)+Xiidra® 500 nM • 9. PBMC+LPS (5 ug/ml)+Xiidra® 50 nM • 10. PBMC+LPS (5 ug/ml)+Xiidra® 5 nM • 11. PBMC+LPS (5 ug/ml)+Xiidra® 0.5 nM • 12. PBMC+LPS (5 ug/ml)+Xiidra® 0.05 nM • 13. PBMC+LPS (5 ug/ml)+Xiidra® 0.005 nM • 14. PBMC+LPS (5 ug/ml)+YY-101 500 nM • 15. PBMC+LPS (5 ug/ml)+YY-101 50 nM • 16. PBMC+LPS (5 ug/ml)+YY-101 5 nM • 17. PBMC+LPS (5 ug/ml)+YY-101 0.5 nM • 18. PBMC+LPS (5 ug/ml)+YY-101 0.05 nM • 19. PBMC+LPS (5 ug/ml)+YY-101 0.005 nM • 20. PBMC+LPS (5 ug/ml)+YDE-011 500 nM • 21. PBMC+LPS (5 ug/ml)+YDE-011 50 nM • 22. PBMC+LPS (5 ug/ml)+YDE-011 5 nM • 23. PBMC+LPS (5 ug/ml)+YDE-011 0.5 nM • 24. PBMC+LPS (5 ug/ml)+YDE-011 0.05 nM • 25. PBMC+LPS (5 ug/ml)+YDE-011 0.005 nM • 26. PBMC+LPS (5 ug/ml)+YDE-043 500 nM • 27. PBMC+LPS (5 ug/ml)+YDE-043 50 nM • 28. PBMC+LPS (5 ug/ml)+YDE-043 5 nM • 29. PBMC+LPS (5 ug/ml)+YDE-043 0.5 nM • 30. PBMC+LPS (5 ug/ml)+YDE-043 0.05 nM • 31. PBMC+LPS (5 ug/ml)+YDE-043 0.005 nM
(§3) Multiplex assay was used to measure 30 cytokines and chemokines. The 1:200 diluted cell supernatant and serial dilution of the standard were dispensed into a 96 well plate at 50 ul/well. Then, the pre-mixed cocktail of antibody-coated magnetic beads was dispensed at 50 ul/well and incubated at room temperature for 2 h in a horizontal orbital microplate shaker at 800±500 rpm. The beads were washed using a magnetic device to prevent loss. The biotin-antibody was dispensed in 50 ul of each well and incubated at room temperature for 1 h in a shaker at 800±500 rpm. After washing, streptavidin-PE was added at 50 ul/well and incubated at room temperature for 30 min in a shaker under the same conditions. Finally, after washing, wash buffer (100 ul/well) was added to the plate and incubated in a shaker for 2 min. The Luminex™ 200 setting were set according to the manufacturer's protocol. The data was calculated with a standard five-parameter logistic nonlinear regression analysis of the data (xPonent software 4.2, USA). Results were presented as concentration (ng/ml or pg/ml).

IL-8/CXCL8 = assay: Example 8 main study Luminex, LPS hPBMCs: IL-8/CXCL8; format: cell-based, human; settings: for IL-8/CXCL8 Concentration: single replicates (1st, 2nd, 3rd)
Method: as §1, §2, §3

[1] = PBMC + LPS(5 ug/ml) + test article 0.005 nM
[2] = PBMC + LPS(5 ug/ml) + test article 0.05 nM
[3] = PBMC + LPS(5 ug/ml) + test article 0.5 nM
[4] = PBMC + LPS(5 ug/ml) + test article 5 nM
[5] = PBMC + LPS(5 ug/ml) + test article 50 nM
[6] = PBMC + LPS(5 ug/ml) + test article 500 nM

SMILES: CC(C)C[C@H](NC(=O)[C@H](CCC(N)=O)NC(=O)CNC(=O)[C@@H]1C[C@@H](O)CN1)C(=O)NCC(=O)O [YDE-043] (H-[Hyp]GQLG-OH; N-terminus and C-terminus assumed)
- TIMP-1 Concentration (pg/ml), Mean (TIMP-1; test article 0.005 nM): 4681.6 pg/mL
- TIMP-1 Concentration (pg/ml), single replicates (TIMP-1; test article 0.005 nM): 3935.4 pg/mL and 5543.0 pg/mL and 4566.3 pg/mL
- TIMP-1 Concentration (pg/ml), Mean (TIMP-1; test article 0.05 nM): 4088.2 pg/mL
- TIMP-1 Concentration (pg/ml), single replicates (TIMP-1; test article 0.05 nM): 4259.2 pg/mL and 4414.6 pg/mL and 3590.9 pg/mL
- TIMP-1 Concentration (pg/ml), Mean (TIMP-1; test article 0.5 nM): 4203.1 pg/mL
- TIMP-1 Concentration (pg/ml), single replicates (TIMP-1; test article 0.5 nM): 4259.2 pg/mL and 4414.6 pg/mL and 3935.4 pg/mL
- TIMP-1 Concentration (pg/ml), Mean (TIMP-1; test article 5 nM): 4463.9 pg/mL
- TIMP-1 Concentration (pg/ml), single replicates (TIMP-1; test article 5 nM): 4566.3 pg/ml (2×) and 4259.2 pg/ml
- TIMP-1 Concentration (pg/ml), Mean (TIMP-1; test article 50 nM): 4351.3 pg/mL
- TIMP-1 Concentration (pg/ml), single replicates (TIMP-1; test article 50 nM): 3935.4 pg/mL and 4859.3 pg/mL and 4259.2 pg/mL
- TIMP-1 Concentration (pg/ml), Mean (TIMP-1; test article 500 nM): 4299.5 pg/mL
- TIMP-1 Concentration (pg/ml), single replicates (TIMP-1; test article 500 nM): 4566.3 pg/ml (2×) and 3766.0 pg/ml
- IL-8/CXCL8 Concentration, Mean (IL-8/CXCL8; [1]): 59062.0 pg/mL
- IL-8/CXCL8 Concentration (IL-8/CXCL8; [1]): 56206.5 pg/mL and 53607.2 pg/mL and 67372.3 pg/mL
- IL-8/CXCL8 Concentration, Mean (IL-8/CXCL8; [2]): 51146.6 pg/mL
- IL-8/CXCL8 Concentration (IL-8/CXCL8; [2]): 48485.5 pg/mL and 53107.5 pg/mL and 51846.7 pg/mL
- IL-8/CXCL8 Concentration, Mean (IL-8/CXCL8; [3]): 52327.4 pg/mL
- IL-8/CXCL8 Concentration (IL-8/CXCL8; [3]): 55144.2 pg/mL and 51593.2 pg/mL and 50244.9 pg/mL
- IL-8/CXCL8 Concentration, Mean (IL-8/CXCL8; [4]): 56067.9 pg/mL
- IL-8/CXCL8 Concentration (IL-8/CXCL8; [4]): 56540.0 pg/mL and 58269.2 pg/mL and 53394.4 pg/mL
- IL-8/CXCL8 Concentration, Mean (IL-8/CXCL8; [5]): 55575.7 pg/mL
- IL-8/CXCL8 Concentration (IL-8/CXCL8; [5]): 57759.9 pg/mL and 58638.2 pg/mL and 50329.0 pg/mL
- IL-8/CXCL8 Concentration, Mean (IL-8/CXCL8; [6]): 51601.8 pg/mL
- IL-8/CXCL8 Concentration (IL-8/CXCL8; [6]): 51413.7 pg/mL and 49678.2 pg/mL and 53713.6 pg/mL
- LPS-induced IL-8 (in words) (IL-8/CXCL8; at as low as 5 μM, LPS 5 ug/mL 24 hrs): significantly reduced
